Data reported in the SangsterLogP compilation.

assay: method code SF-AS, from DOI: 10.1021/jm00266a011, PMID: 4583365; settings: not given

| logP | SMILES |
| --- | --- |
| 2.22 | O=C(N[C@@H](CO)[C@@H](O)c1ccc(I)cc1)C(Cl)Cl (relative stereo) |
| 1.36 | O=C(N[C@H](CO)[C@H](O)c1ccc([N+](=O)[O-])cc1)C(Br)Br |
| 1.07 | O=C(NC(CO)C(O)c1ccc([N+](=O)[O-])cc1)C(F)(F)F (stereo not given) |
| 0.94 | O=C(NC(CO)C(O)c1ccccc1)C(Cl)Cl (stereo not given) |
| 1.52 | O=C(Cc1ccccc1)NC(CO)C(O)c1ccc([N+](=O)[O-])cc1 (stereo not given) |
| 0.42 | O=C(N[C@H](CO)[C@H](O)c1ccc([N+](=O)[O-])cc1)C(F)F |
| 1.71 | CCC(CC)C(=O)N[C@H](CO)[C@H](O)c1ccc([N+](=O)[O-])cc1 |
| 1.47 | N#CC(C(=O)NC(CO)C(O)c1ccc([N+](=O)[O-])cc1)c1ccccc1 (stereo not given) |
| 3.22 | CCCCCCCCN(C)/N=N/c1nc[nH]c1C(N)=O |
| 2.86 | O=C(N[C@H](CO)[C@H](O)c1ccc(-c2ccccc2)cc1)C(Cl)Cl |
| 1.87 | O=C(N[C@H](CO)[C@H](O)c1ccc(Br)cc1)C(Cl)Cl |
| 1.63 | O=C(NC(CO)C(O)c1ccc([N+](=O)[O-])cc1)c1ccccc1 (stereo not given) |
| 1.97 | O=C(NC(CO)C(O)c1ccc([N+](=O)[O-])cc1)C(Cl)(Cl)Cl (stereo not given) |
| 2.17 | O=C(N[C@H](CO)[C@H](O)c1ccc([N+](=O)[O-])cc1)C(Br)(Br)Br |
| 0.88 | CC(C)C(=O)N[C@H](CO)[C@H](O)c1ccc([N+](=O)[O-])cc1 |
| -0.03 | CC(=O)NC(CO)C(O)c1ccc([N+](=O)[O-])cc1 (stereo not given) |
| 0.87 | CCCC(=O)NC(CO)C(O)c1ccc([N+](=O)[O-])cc1 (stereo not given) |
| 1.03 | O=C(CI)N[C@H](CO)[C@H](O)c1ccc([N+](=O)[O-])cc1 |
| 1.29 | N#Cc1ccc([C@@H](O)[C@@H](CO)NC(=O)C(Cl)Cl)cc1 |
| 0.59 | O=C(CCl)NC(CO)C(O)c1ccc([N+](=O)[O-])cc1 (stereo not given) |
| 0.98 | CC(Cl)C(=O)NC(CO)C(O)c1ccc([N+](=O)[O-])cc1 (stereo not given) |

| SMILES | logP |
| --- | --- |
| O=C(CF)NC(CO)C(O)c1ccc([N+](=O)[O-])cc1 (stereo not given) | 0.15 |

same assay, conditions: pH 7.4

| logD | SMILES |
| --- | --- |
| 1.33 | CC(C)(C)C(=O)N[C@H](CO)[C@H](O)c1ccc([N+](=O)[O-])cc1 |

assay: method code SF, from DOI: 10.1021/jm00266a011, PMID: 4583365; settings: not given

| SMILES | logP |
| --- | --- |
| CN(Cc1ccccc1)/N=N/c1nc[nH]c1C(N)=O | 1.54 |
| N#CCC(=O)NC(CO)C(O)c1ccc([N+](=O)[O-])cc1 (stereo not given) | -0.22 |
